Source: publication PMC5538626, “Structural and functional analysis of the GABARAP interaction motif (GIM)” (EMBO Reports, 2017)
Entries after “also recorded” stand apart in the source; their conditions may differ. Ends that are not written are not given here.

How the values were obtained:
[1] = system: 6xHis-tagged LC3B and 6xHis-tagged GABARAP; test: Peptide array, preference GABARAP versus LC3B (absorbance ratio); format: binding, human; settings: absorbance GABARAP/LC3B or LC3B/GABARAP, cut-off 1.5-fold; mean of n = 3; Figs 1A, EV1B and C
From the text: A high number of autophagy receptors or adaptor structures have been reported, yet the basis for their selective interaction with individual members of the ATG8 family is not well understood. We speculated whether the LIR motif alone is able to confer selectivity towards a mATG8 subfamily and whether we could derive a subfamily consensus motif from analysis of known mATG8 interaction partners. To address this question, we screened an array of peptides (presented in Fig EV1A and described in Materials and Methods) with the LIR sequences of 30 known and validated autophagy receptors and adaptors (Table 1) against all six human mATG8s for binding (Figs 1A and EV1B and C). In brief, biotinylated peptides were immobilized on streptavidin‐coated 96‐well plates and incubated with His6‐tagged mATG8 proteins. After washing steps, peptide‐bound mATG8 was detected in an ELISA reader using anti‐His antibodies directly conjugated to HRP (horse radish peroxidase; Fig EV1A).
Dashed red line depicts 1.5‐fold change cut‐off.
Due to the wide range of affinities of various LIR sequences towards the LC3/GABARAP proteins, we have normalized our results by dividing values for LC3B interaction by the corresponding value for interaction with GABARAP (Fig 1A, purple bars) and vice versa (Fig 1A, blue bars) to highlight the potential subfamily selectivity of each LIR sequence tested. We classified ratios greater than 1.5‐fold as an indication of a preferential interaction towards that particular LC3 or GABARAP family member. […] Using this information, we generated a sequence plot (Fig 1B) to ascertain whether there were any common sequence features of the GABARAP‐specific interaction proteins. In addition to the 12 sequences identified in this experiment as preferential GABARAP subfamily interactors, we also included known GABARAP interactors that were not included in our screen (ALFY and KBTBD7). […] The previously identified PLEKHM1‐LIR 19 has a high degree of similarity to this sequence. […] However, it is unclear whether this is the case in vivo.
Biotinylated peptides (JPT, Germany) were immobilized on streptavidin‐coated 96‐well plates (#436014; Thermo Scientific) in 100 μl PBS containing 0.1% Tween‐20 (PT) and 1% BSA (PTB) overnight on a shaker at 8°C. After three washing steps with 200 μl PT, 100 μl of 1 μM HIS6‐tagged mATG fusion proteins isolated from E. coli in PTB was incubated with the immobilized peptides for 1 h at 8°C. After three washing steps with 200 μl PT, HIS6‐ATG8 bound to peptides was detected after 1‐h incubation with anti‐HIS‐HRP antibody (JP‐A00612; Genscript; 1:5,000 in 100 μl PTB) with the help of TMB substrate Reagent Set (BD OptEIA; 75 μl). The reaction (blue coloration) was stopped by addition of 60 μl 1 M H3PO4. Samples were analysed on a Synergy H1 ELISA reader from BioTek at 450 nm.

LC3B = settings: p62 LIR with LC3B; no method, no reference given; cited from earlier work
From the text: Finally, we wanted to apply and subsequently verify our findings by targeted mutation of established autophagy players: p62, FUNDC1 and FIP200. Due to their impact, we specifically substituted existing residues at positions X1 and Γ of LIRs either singly or in combination to valine, thus driving the LIR sequences towards our GIM consensus sequence (Fig 1).

all LC3s = settings: GST pull-down; cited from earlier work
From the text: Due to the wide range of affinities of various LIR sequences towards the LC3/GABARAP proteins, we have normalized our results by dividing values for LC3B interaction by the corresponding value for interaction with GABARAP (Fig 1A, purple bars) and vice versa (Fig 1A, blue bars) to highlight the potential subfamily selectivity of each LIR sequence tested. We classified ratios greater than 1.5‐fold as an indication of a preferential interaction towards that particular LC3 or GABARAP family member.

all six mATG8 proteins = test: Peptide array (ELISA), all six mATG8s; settings: 450 nm, Fig 3E, n = 4
endogenous GABARAP [2] = test: Co-immunoprecipitation of 3xFlag-FIP200 with endogenous GABARAP, HEK293 cells; format: cell-based; settings: HEK293, anti-Flag beads, Western blot; Fig 5B
Protocol: Blots were probed for the presence of endogenous GABARAP and LC3B proteins. • 3xFlag‐FIP200 WT, E703V, I705V, E703V/I705V and F702A/I705A were overexpressed in HEK293 cells and immunoprecipitated using anti‐Flag beads and subjected to SDS–PAGE and Western blotting. Blots were probed for the presence of endogenous GABARAP and LC3B proteins. • GFP‐FUNDC1 WT, E19V, L21V, E19V/L21V and Y18A/L21A were overexpressed in HEK293 cells and either treated with vehicle only (DMSO) or 20 μM CCCP for 2 h, lysed and GFP‐FUNDC1 immunoprecipitated using anti‐GFP beads (or anti‐RFP beads as control) and subjected to SDS–PAGE and Western blotting. Blots were probed for the presence of endogenous GABARAP and LC3B proteins.

endogenous GABARAP [3] = test: Co-immunoprecipitation of GFP-mCherry-p62/SQSTM1 with endogenous GABARAP, HEK293 cells; format: cell-based; settings: HEK293, basal conditions, anti-RFP beads, Western blot; Fig 5A
endogenous LC3B = test: Co-immunoprecipitation of GFP-mCherry-p62/SQSTM1 with endogenous LC3B, HEK293 cells; format: cell-based; settings: HEK293, basal conditions, anti-RFP beads, Western blot; Fig 5A
6xHis-tagged LC3A = test: Peptide array (ELISA), LC3A; settings: fold change over WT, mean ± SEM n = 3, Fig EV5A
6xHis-tagged LC3B = test: Peptide array (ELISA), LC3B; settings: fold change over WT, n = 3, Fig EV5A
6xHis-tagged LC3C = test: Peptide array (ELISA), LC3C; settings: fold change over WT, n = 3, Fig EV5A
[4] = system: GABARAP family (GABARAP, GABARAP-L1, GABARAP-L2); test: Peptide array (ELISA), GABARAP family; settings: fold change over WT, n = 3, Fig EV5A
GFP-LC3/GABARAPs = test: Co-immunoprecipitation of endogenous proteins with GFP-mATG8s in HeLa cells; settings: 4 h KU-0063794 (10 μM) + chloroquine (20 μM), Fig 2C

DDDWTHLSS [p62/SQSTM1, LIR peptide 335–343, peptide array]
preference GABARAP versus LC3B [1]: slight preference for GABARAP | Kd (LC3B): ~1500 nM

EDEWVNVQY [PLEKHM1]
preference GABARAP versus LC3B [1]: clear preference for binding to GABARAP and GABARAP‐L2 over LC3B and LC3C; also recorded: strong preference for GABARAP versus LC3 | interaction with LC3s (all LC3s): can interact with all LC3s | ranking of mATG8 binding (all six mATG8 proteins): shows the most potent interaction, followed by GABARAP‐L1, ‐L2, LC3C and LC3A, with LC3B as the weakest interactor

FVTV: 3xFlag-FIP200 E703V/I705V
interaction of FIP200 with endogenous GABARAP (endogenous GABARAP [2]): enhance the interaction between FIP200 (LIR sequence FDFETIPH) and GABARAP

L341V: GFP-mCherry-p62/SQSTM1 L341V
interaction of p62/SQSTM1 with endogenous GABARAP (endogenous GABARAP [3]): mild effect; also recorded: little effect on LC3/GABARAP‐specific interaction | interaction of p62/SQSTM1 with endogenous LC3B (endogenous LC3B): little effect on LC3/GABARAP‐specific interaction

V638I: PLEKHM1-LIR array peptide V638I (EDEWVNIQY; also: biotin, position not given here)
interaction with LC3A, Θ and Γ mutants (6xHis-tagged LC3A): did not affect | interaction with LC3B, Θ and Γ mutants (6xHis-tagged LC3B): increase the affinity | interaction with LC3C, Θ and Γ mutants (6xHis-tagged LC3C): did not affect | interaction with GABARAP family, Θ and Γ mutants [4]: small decrease in the interaction

V638L: PLEKHM1-LIR array peptide V638L (EDEWVNLQY; also: biotin, position not given here)
interaction with LC3A, Θ and Γ mutants (6xHis-tagged LC3A): did not affect | interaction with LC3B, Θ and Γ mutants (6xHis-tagged LC3B): increase the affinity | interaction with LC3C, Θ and Γ mutants (6xHis-tagged LC3C): did not affect | interaction with GABARAP family, Θ and Γ mutants [4]: small decrease in the interaction

endogenous p62/SQSTM1: endogenous p62/SQSTM1 protein in HeLa cells
co-precipitation of endogenous protein with GFP-mATG8s (GFP-LC3/GABARAPs): co‐precipitated with all LC3/GABARAP to a similar extent
